“And” between values parts separate entries of the source, which are not always exact repeats. Equal values may be shown once. Read-outs that look alike come from different tables or passages of the source.
What was measured:
[1] = metformin 850 mg oral alone
[2] = metformin alone; OGTT 75 g 2 hours after dosing; p>0.1 vs pre-metformin
[3] = clinical; details: human, po, 850 mg
[4] = target: T1, human MATE1 (Homo sapiens, UniProt Q96FL8); assay: Inhibition of [14C]-metformin uptake in HEK-MATE1 cells; format: cell-based; details: for inhibition at 10 x Cmax,u: human, probe [14C]-metformin 10 µM
T1 sequence (Q96FL8 1-570): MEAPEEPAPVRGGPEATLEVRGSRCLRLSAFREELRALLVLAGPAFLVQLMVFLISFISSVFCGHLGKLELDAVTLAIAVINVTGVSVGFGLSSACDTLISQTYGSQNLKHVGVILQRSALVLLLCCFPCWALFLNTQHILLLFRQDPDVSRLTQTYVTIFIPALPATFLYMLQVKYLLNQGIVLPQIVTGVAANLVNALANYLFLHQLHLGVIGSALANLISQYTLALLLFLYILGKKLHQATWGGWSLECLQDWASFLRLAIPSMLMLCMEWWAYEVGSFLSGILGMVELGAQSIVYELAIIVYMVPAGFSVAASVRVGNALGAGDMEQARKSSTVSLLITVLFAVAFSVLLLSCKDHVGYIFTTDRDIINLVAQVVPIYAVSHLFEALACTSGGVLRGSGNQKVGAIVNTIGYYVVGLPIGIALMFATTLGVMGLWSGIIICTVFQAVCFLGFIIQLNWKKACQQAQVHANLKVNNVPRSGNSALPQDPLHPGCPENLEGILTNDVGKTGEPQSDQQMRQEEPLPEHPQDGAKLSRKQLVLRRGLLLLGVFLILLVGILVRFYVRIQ

[5] = target: T2, human MATE2K (Homo sapiens, UniProt Q86VL8); assay: in vitro; details: probe [14C]-metformin 10 µM
[6] = target: T3, human OCT2 (Homo sapiens, UniProt O15244); assay: Inhibition of [14C]-metformin uptake in HEK-OCT2 cells; format: cell-based; details: for inhibition at 10 x Cmax,u: human, HEK293-Flp-In cells stably expressing human OCT2 (HEK-OCT2), probe [14C]-metformin 10 µM
T3 sequence (O15244 1-555): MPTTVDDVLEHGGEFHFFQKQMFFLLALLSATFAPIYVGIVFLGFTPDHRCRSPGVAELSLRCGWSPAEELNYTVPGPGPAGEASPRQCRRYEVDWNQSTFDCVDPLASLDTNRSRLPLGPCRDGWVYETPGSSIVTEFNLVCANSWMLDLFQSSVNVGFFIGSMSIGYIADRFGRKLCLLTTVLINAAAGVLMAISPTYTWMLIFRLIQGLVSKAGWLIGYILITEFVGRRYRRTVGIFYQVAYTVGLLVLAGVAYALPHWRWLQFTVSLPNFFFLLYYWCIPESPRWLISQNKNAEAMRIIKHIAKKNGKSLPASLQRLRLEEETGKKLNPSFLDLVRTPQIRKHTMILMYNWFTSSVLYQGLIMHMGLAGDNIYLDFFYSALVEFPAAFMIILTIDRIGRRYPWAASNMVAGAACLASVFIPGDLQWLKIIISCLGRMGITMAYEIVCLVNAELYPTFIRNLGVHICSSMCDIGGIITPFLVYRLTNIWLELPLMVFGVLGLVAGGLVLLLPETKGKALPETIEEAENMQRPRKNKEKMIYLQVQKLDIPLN

[7] = target: T4, human OCT3 (Homo sapiens, UniProt O75751); assay: Inhibition of [14C]-metformin uptake in HEK-OCT3 cells; format: cell-based; details: for metformin uptake (remaining): OCT3-mediated, inhibitor at 10x Cmax,u
T4 sequence (O75751 1-556): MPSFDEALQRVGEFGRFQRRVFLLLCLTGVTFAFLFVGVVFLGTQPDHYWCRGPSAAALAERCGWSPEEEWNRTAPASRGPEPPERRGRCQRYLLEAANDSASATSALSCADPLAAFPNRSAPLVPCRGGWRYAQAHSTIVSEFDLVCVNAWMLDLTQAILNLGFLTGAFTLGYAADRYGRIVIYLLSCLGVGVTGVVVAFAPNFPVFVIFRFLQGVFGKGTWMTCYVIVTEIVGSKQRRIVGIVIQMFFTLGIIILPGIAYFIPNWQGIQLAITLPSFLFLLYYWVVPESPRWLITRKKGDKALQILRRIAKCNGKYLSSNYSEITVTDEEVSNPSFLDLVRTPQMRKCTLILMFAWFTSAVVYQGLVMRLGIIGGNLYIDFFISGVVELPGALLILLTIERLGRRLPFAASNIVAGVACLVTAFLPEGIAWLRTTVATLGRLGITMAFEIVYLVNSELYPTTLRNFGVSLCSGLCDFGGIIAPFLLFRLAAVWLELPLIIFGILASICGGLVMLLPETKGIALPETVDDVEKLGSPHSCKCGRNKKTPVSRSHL

[8] = target: T5, human PMAT (Homo sapiens, UniProt Q7RTT9); assay: Inhibition of [14C]-metformin uptake in MDCK-PMAT cells; format: cell-based
T5 sequence (Q7RTT9 1-530): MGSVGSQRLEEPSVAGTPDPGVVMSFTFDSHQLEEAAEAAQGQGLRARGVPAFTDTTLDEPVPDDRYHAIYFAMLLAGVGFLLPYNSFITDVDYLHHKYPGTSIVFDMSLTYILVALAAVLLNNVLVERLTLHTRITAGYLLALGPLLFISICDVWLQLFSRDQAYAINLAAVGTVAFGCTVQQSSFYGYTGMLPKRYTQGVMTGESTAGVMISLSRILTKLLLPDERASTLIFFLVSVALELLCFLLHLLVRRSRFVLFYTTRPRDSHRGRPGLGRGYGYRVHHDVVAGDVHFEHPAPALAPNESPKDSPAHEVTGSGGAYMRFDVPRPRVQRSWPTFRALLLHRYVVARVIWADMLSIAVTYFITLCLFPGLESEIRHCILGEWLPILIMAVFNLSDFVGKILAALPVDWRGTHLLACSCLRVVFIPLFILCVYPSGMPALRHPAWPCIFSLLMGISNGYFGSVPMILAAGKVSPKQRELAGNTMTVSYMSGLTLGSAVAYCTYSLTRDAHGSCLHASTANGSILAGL

[9] = target: T6, human OCT1 (Homo sapiens, UniProt O15245); assay: cell-based
T6 sequence (O15245 1-554): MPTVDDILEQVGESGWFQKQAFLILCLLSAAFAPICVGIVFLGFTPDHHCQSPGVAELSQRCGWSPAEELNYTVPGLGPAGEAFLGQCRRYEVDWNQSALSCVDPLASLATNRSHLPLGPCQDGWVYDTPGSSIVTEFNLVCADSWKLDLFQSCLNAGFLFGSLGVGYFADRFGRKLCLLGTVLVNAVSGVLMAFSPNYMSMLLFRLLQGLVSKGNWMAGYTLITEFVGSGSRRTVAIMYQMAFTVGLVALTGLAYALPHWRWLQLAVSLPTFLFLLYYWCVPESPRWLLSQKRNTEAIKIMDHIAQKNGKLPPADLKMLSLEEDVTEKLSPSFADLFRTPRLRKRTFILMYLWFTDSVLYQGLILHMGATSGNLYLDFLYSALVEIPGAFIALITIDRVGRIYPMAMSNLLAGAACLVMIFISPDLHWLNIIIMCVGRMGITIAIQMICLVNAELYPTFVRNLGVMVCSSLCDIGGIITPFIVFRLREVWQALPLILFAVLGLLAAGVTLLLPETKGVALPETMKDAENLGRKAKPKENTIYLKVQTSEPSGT

[10] = target: T2, human MATE2K; assay: cell-based; details: IC50, [14C]-metformin 10 μM uptake, HEK-MATE2K
[11] = format: in vivo, human
[12] = target: T6, human OCT1; details: OCT1-mediated, inhibitor at 10x Cmax,u
[13] = human plasma; cited from earlier work

T2 sequence (Q86VL8 1-566 isoform Q86VL8-3): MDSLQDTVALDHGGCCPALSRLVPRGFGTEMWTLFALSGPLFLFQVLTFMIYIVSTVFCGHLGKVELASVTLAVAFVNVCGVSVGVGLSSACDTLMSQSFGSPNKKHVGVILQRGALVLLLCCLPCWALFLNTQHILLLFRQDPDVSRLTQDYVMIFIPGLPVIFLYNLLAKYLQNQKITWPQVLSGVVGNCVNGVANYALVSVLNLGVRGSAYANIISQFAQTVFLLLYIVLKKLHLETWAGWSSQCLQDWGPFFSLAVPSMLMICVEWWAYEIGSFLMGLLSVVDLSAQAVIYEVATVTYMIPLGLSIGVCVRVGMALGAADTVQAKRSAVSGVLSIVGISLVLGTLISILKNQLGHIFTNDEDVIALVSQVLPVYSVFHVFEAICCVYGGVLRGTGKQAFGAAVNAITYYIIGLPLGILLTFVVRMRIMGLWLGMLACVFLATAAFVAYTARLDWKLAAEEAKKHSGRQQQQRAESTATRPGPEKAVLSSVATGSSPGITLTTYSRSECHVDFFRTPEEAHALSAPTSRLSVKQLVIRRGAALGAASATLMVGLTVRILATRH

## CN(C)C(=N)N=C(N)N [Metformin, metformin]
[1]
  CL/F: 1360 ± 440 mL/min
  V/F: 577 ± 179 L
[1]; 11 subjects
  Amount in urine0–24: 437 ± 86 mg
[2]
  glucose AUC after OGTT: 3100 ± 121 mg·h/L
[3]; plasma and urine
  CL renal: 736 ± 204 mL/min
[3]; plasma
  AUC(0-inf): 11400 ± 3300 ng·h/mL
  AUC(0-t): 11000 ± 3100 ng·h/mL
  Cmax: 1810 ± 600 ng/mL
  Tmax: 2.46 ± 0.66 h

## Nc1nc(NC2CC2)c2ncn([C@H]3C=C[C@@H](CO)C3)c2n1 [abacavir]
[4]
  inhibition at 10 x Cmax,u: ≥ 50%

## CN/C(=N/CCSCc1nc[nH]c1C)NC#N [cimetidine]
[4]
  inhibition at 10 x Cmax,u: ≥ 50%
[5]
  inhibition at 10 x Cmax,u: ≥ 50%

## CC(C)/N=c1\cc2n(-c3ccc(Cl)cc3)c3ccccc3nc-2cc1Nc1ccc(Cl)cc1 [clofazimine]
[4]
  inhibition at 10 x Cmax,u: ≥ 50%

## CC(=O)OCC(CCn1cnc2cnc(N)nc21)COC(C)=O [famciclovir]
[5]
  inhibition at 10 x Cmax,u: ≥ 50%

## COc1c(N2C[C@@H]3CCCN[C@@H]3C2)c(F)cc2c(=O)c(C(=O)O)cn(C3CC3)c12 [moxifloxacin]
[6]
  IC50: > 151 µM
[7]
  IC50: > 151 µM
[4]
  IC50: 5.12 µM
  inhibition at 10 x Cmax,u: ≥ 50%
[8]
  IC50: > 151 µM
[5]
  inhibition at 10 x Cmax,u: ≥ 50%
[9]
  IC50: 47 µM
[10]
  IC50: 1.19 µM

## C=CCN1CC[C@]23c4c5ccc(O)c4O[C@H]2C(=O)CC[C@@]3(O)[C@H]1C5 [naloxone]
[6]
  inhibition at 10 x Cmax,u: ≥ 50%

## CNC(=C[N+](=O)[O-])NCCSCc1csc(CN(C)C)n1 [nizatidine]
[6]
  IC50: > 115 µM
[7]
  IC50: 41.1 µM
  metformin uptake (remaining): > 50%
[4]
  IC50: 52.7 µM
[8]
  IC50: > 115 µM
[11]; human, plasma, oral
  half-life: ~3 h
[11]; human, plasma, po, 600 mg
  Cmax: 4200 ng/mL and 12.7 µM
[11]; nizatidine 600 mg oral, calculated with 35% protein binding
  calculated Cmax,u: 2.7 ± 0.2 μg/mL and 8.2 μM
[12]
  metformin uptake (remaining): > 50%
[13]
  protein binding: 35%
[5]
  inhibition at 10 x Cmax,u: ≥ 50%
[9]
  IC50: > 115 µM
[10]
  IC50: 7.8 µM and 7.81 µM

## CCn1cc(C(=O)O)c(=O)c2cc(F)c(N3CCNCC3)cc21 [norfloxacin]
[6]
  IC50: > 160 µM
[7]
  IC50: > 160 µM
  metformin uptake (remaining): > 50%
[4]
  IC50: 19.9 µM
  inhibition at 10 x Cmax,u: ≥ 50%
[8]
  IC50: > 160 µM
[12]
  metformin uptake (remaining): > 50%
[5]
  inhibition at 10 x Cmax,u: ≥ 50%
[9]
  IC50: > 160 µM
[10]
  IC50: 4.74 µM

## Cc1nccn1CC1CCc2c(c3ccccc3n2C)C1=O (stereo not drawn) [ondansetron]
[7]
  IC50: > 1.32 µM
  metformin uptake (remaining): > 50%
[4]
  inhibition at 10 x Cmax,u: ≥ 50%
[8]
  IC50: > 1.32 µM
[12]
  metformin uptake (remaining): > 50%
[5]
  inhibition at 10 x Cmax,u: ≥ 50%
[9]
  IC50: > 1.32 µM

## CCN(CC)CCNC(=O)c1ccc(N)cc1 [procainamide]
[6]
  inhibition at 10 x Cmax,u: ≥ 50%
[5]
  inhibition at 10 x Cmax,u: ≥ 50%

## C=C[C@H]1C[N@@]2CC[C@H]1C[C@H]2[C@H](O)c1ccnc2ccc(OC)cc12 [quinine]
[6]
  inhibition at 10 x Cmax,u: ≥ 50%
[4]
  inhibition at 10 x Cmax,u: ≥ 50%
[5]
  inhibition at 10 x Cmax,u: ≥ 50%

## CNC(=C[N+](=O)[O-])NCCSCc1ccc(CN(C)C)o1 [ranitidine]
[6]
  IC50: 15.7 µM
[7]
  IC50: 93.5 µM
  metformin uptake (remaining): > 50%
[4]
  inhibition at 10 x Cmax,u: ≥ 50%
[8]
  IC50: > 214 µM
[12]
  metformin uptake (remaining): > 50%
[5]
  inhibition at 10 x Cmax,u: ≥ 50%
[9]
  IC50: 26.8 µM
[10]
  IC50: 4.63 µM

## COc1cc(Cc2cnc(N)nc2N)cc(OC)c1OC [trimethoprim]
[4]
  inhibition at 10 x Cmax,u: ≥ 50%
[5]
  inhibition at 10 x Cmax,u: ≥ 50%

— publication PMC4792735 (Clinical pharmacokinetics, 2016)
